What was measured:
[1] = cited from earlier work
[2] = data not shown

SMILES	Solubility in Organic Solvents [1]	T80% (time required for 80% of lidocaine to be released) [2]
O=C1NS(=O)(=O)c2ccccc21 [Saccharin]	Slightly soluble	
CCN(CC)CC(=O)Nc1c(C)cccc1C [pure lidocaine, lidocaine]		less than 30 minutes
CCCCC(CC)COC(=O)CC(C(=O)OCC(CC)CCCC)S(=O)(=O)O (stereo not drawn) [Docusate]	1 in 1	
OC[C@@H](O)[C@@H](O)[C@H](O)[C@H](O)CO [Mannitol]	Practically insoluble	
C/C=C/C=C/C(=O)O [Sorbic acid]	1 in 15 chloroform	
CC(C)CCC[C@@H](C)[C@H]1CC[C@H]2[C@@H]3CC=C4C[C@@H](O)CC[C@]4(C)[C@H]3CC[C@]12C [Cholesterol]	1 in 4.5 chloroform	
